Assay results as given in paper PMC5218480 (PLoS ONE, 2017).

Test system: MV-4-11 cells
Assay: Gene expression microarray analysis (Affymetrix PrimeView) and GSEA
Format: cell-based, human
Set-up: RFU PODN (11730768_x_at) / Fold change /veh PODN (11730768_x_at) / RFU LINC00158 (11744669_a_at) / Fold change /veh LINC00158 (11744669_a_at) / RFU DUSP10 (11751237_a_at) / Fold change /veh DUSP10 (11751237_a_at) / RFU ID3 (11757404_x_at) / Fold change /veh ID3 (11757404_x_at) / RFU PLEKHG5 (11737974_s_at) / Fold change /veh PLEKHG5 (11737974_s_at) / RFU LRRC4B (11730491_at) / Fold change /veh LRRC4B (11730491_at) / RFU GIMAP4 (11747438_a_at) / Fold change /veh GIMAP4 (11747438_a_at) / RFU KRT8 (11758183_x_at) / Fold change /veh KRT8 (11758183_x_at) / RFU CNN1 (11734310_a_at) / Fold change /veh CNN1 (11734310_a_at) / RFU VPS37D (11726825_at) / Fold change /veh VPS37D (11726825_at) / RFU C10orf10 (11716522_x_at) / Fold change /veh C10orf10 (11716522_x_at) / RFU KIR2DL2 /// KIR2DL4 /// KIR2DL5A /// KIR2DL5B /// KIR2DS1 /// KIR2DS2 /// KIR2DS3 /// KIR2DS4 /// KIR3DL3 /// KIR3DL3 /// KIR3DS1 (11738374_at) / Fold change /veh KIR2DL2 /// KIR2DL4 /// KIR2DL5A /// KIR2DL5B /// KIR2DS1 /// KIR2DS2 /// KIR2DS3 /// KIR2DS4 /// KIR3DL3 /// KIR3DL3 /// KIR3DS1 (11738374_at) / RFU C1QL1 (11718748_at) / Fold change /veh C1QL1 (11718748_at) / RFU TMPRSS4 (11747572_a_at) / Fold change /veh TMPRSS4 (11747572_a_at) / RFU HAMP (11756126_x_at) / Fold change /veh HAMP (11756126_x_at) / RFU RNFT2 (11725882_a_at) / Fold change /veh RNFT2 (11725882_a_at) / RFU NR4A2 (11747474_a_at) / Fold change /veh NR4A2 (11747474_a_at) / RFU ABCC12 (11746883_a_at) / Fold change /veh ABCC12 (11746883_a_at) / RFU TMEM136 (11760407_x_at) / Fold change /veh TMEM136 (11760407_x_at) / RFU CLDN22 /// WWC2 (11732394_at) / Fold change /veh CLDN22 /// WWC2 (11732394_at) / RFU HLA-DPB1 (11760878_x_at) / Fold change /veh HLA-DPB1 (11760878_x_at) / RFU SPINT1 (11716480_a_at) / Fold change /veh SPINT1 (11716480_a_at) / RFU GAP43 (11754022_s_at) / Fold change /veh GAP43 (11754022_s_at) / RFU A4GNT (11735810_at) / Fold change /veh A4GNT (11735810_at) / RFU PRB3 (11715151_x_at) / Fold change /veh PRB3 (11715151_x_at) / RFU TUBB4B (11761932_at) / Fold change /veh TUBB4B (11761932_at) / RFU CAPN14 (11732068_a_at) / Fold change /veh CAPN14 (11732068_a_at) / RFU TMCC2 (11721928_a_at) / Fold change /veh TMCC2 (11721928_a_at) / RFU IRGQ (11745062_a_at) / Fold change /veh IRGQ (11745062_a_at) / RFU FAM174B (11720279_a_at) / Fold change /veh FAM174B (11720279_a_at) / RFU TMPRSS4 (11748680_a_at) / Fold change /veh TMPRSS4 (11748680_a_at) / RFU FAM212B (11763350_a_at) / Fold change /veh FAM212B (11763350_a_at) / RFU PLEKHG5 (11743358_a_at) / Fold change /veh PLEKHG5 (11743358_a_at) / RFU ZSCAN30 (11745921_a_at) / Fold change /veh ZSCAN30 (11745921_a_at) / RFU CMKLR1 (11741424_a_at) / Fold change /veh CMKLR1 (11741424_a_at) / RFU LOC101060620 /// MAPK8IP1 (11723275_at) / Fold change /veh LOC101060620 /// MAPK8IP1 (11723275_at) / RFU SPTSSB (11747773_x_at) / Fold change /veh SPTSSB (11747773_x_at) / RFU PRSS12 (11739890_at) / Fold change /veh PRSS12 (11739890_at) / RFU BIN1 (11741810_x_at) / Fold change /veh BIN1 (11741810_x_at) / RFU WNT11 (11732464_a_at) / Fold change /veh WNT11 (11732464_a_at) / RFU C10orf10 (11716521_a_at) / Fold change /veh C10orf10 (11716521_a_at) / RFU C5orf56 (11738089_at) / Fold change /veh C5orf56 (11738089_at) / RFU CYB561 (11721691_x_at) / Fold change /veh CYB561 (11721691_x_at) / RFU ANKRD19P (11752326_a_at) / Fold change /veh ANKRD19P (11752326_a_at) / RFU OR2T12 /// OR2T33 /// OR2T8 (11738714_s_at) / Fold change /veh OR2T12 /// OR2T33 /// OR2T8 (11738714_s_at) / RFU VCAN (11748164_a_at) / Fold change /veh VCAN (11748164_a_at) / RFU JSRP1 (11732532_at) / Fold change /veh JSRP1 (11732532_at) / RFU KRTAP10-11 (11738290_x_at) / Fold change /veh KRTAP10-11 (11738290_x_at) / RFU MYO3A (11730013_a_at) / Fold change /veh MYO3A (11730013_a_at) / RFU EBF3 (11725865_a_at) / Fold change /veh EBF3 (11725865_a_at) / RFU CAMK2N1 (11719241_x_at) / Fold change /veh CAMK2N1 (11719241_x_at) / RFU C5orf56 (11738088_a_at) / Fold change /veh C5orf56 (11738088_a_at) / RFU OLFML3 (11715873_a_at) / Fold change /veh OLFML3 (11715873_a_at) / RFU LOC100653217 /// NTM (11731650_a_at) / Fold change /veh LOC100653217 /// NTM (11731650_a_at) / RFU MAPK11 (11762145_a_at) / Fold change /veh MAPK11 (11762145_a_at) / RFU FIZ1 (11724087_x_at) / Fold change /veh FIZ1 (11724087_x_at) / RFU OASL (11726364_x_at) / Fold change /veh OASL (11726364_x_at) / RFU SOX15 (11748057_x_at) / Fold change /veh SOX15 (11748057_x_at) / RFU CD79A (11719716_a_at) / Fold change /veh CD79A (11719716_a_at) / RFU HIST1H1D (11736915_at) / Fold change /veh HIST1H1D (11736915_at) / RFU CASKIN2 (11723855_a_at) / Fold change /veh CASKIN2 (11723855_a_at) / RFU LOC730098 (11760151_x_at) / Fold change /veh LOC730098 (11760151_x_at) / RFU OR4N2 (11742367_at) / Fold change /veh OR4N2 (11742367_at) / RFU PRRT2 (11749266_a_at) / Fold change /veh PRRT2 (11749266_a_at) / RFU SNX32 (11753110_a_at) / Fold change /veh SNX32 (11753110_a_at) / RFU CDHR5 (11726645_a_at) / Fold change /veh CDHR5 (11726645_a_at) / RFU RCAN1 (11760418_a_at) / Fold change /veh RCAN1 (11760418_a_at) / RFU FAM167A (11723789_a_at) / Fold change /veh FAM167A (11723789_a_at) / RFU FAM26E (11764081_at) / Fold change /veh FAM26E (11764081_at) / RFU ISYNA1 (11749810_s_at) / Fold change /veh ISYNA1 (11749810_s_at) / RFU ACY1 (11761880_at) / Fold change /veh ACY1 (11761880_at) / RFU 11764098_at / Fold change /veh 11764098_at / RFU SAMD14 (11745864_x_at) / Fold change /veh SAMD14 (11745864_x_at) / RFU NPB (11741838_a_at) / Fold change /veh NPB (11741838_a_at) / RFU TMPRSS6 (11731388_a_at) / Fold change /veh TMPRSS6 (11731388_a_at) / RFU KRTAP10-2 (11738614_at) / Fold change /veh KRTAP10-2 (11738614_at) / RFU ARHGAP8 /// PRR5-ARHGAP8 (11727945_x_at) / Fold change /veh ARHGAP8 /// PRR5-ARHGAP8 (11727945_x_at) / RFU KRTAP5-7 /// NADSYN1 (11734609_at) / Fold change /veh KRTAP5-7 /// NADSYN1 (11734609_at) / RFU RASL12 (11751679_a_at) / Fold change /veh RASL12 (11751679_a_at) / RFU CDKN2B (11736163_a_at) / Fold change /veh CDKN2B (11736163_a_at) / RFU PRF1 (11729649_at) / Fold change /veh PRF1 (11729649_at) / RFU, ZNF638 /// ZNF638-IT1 / Fold change vs veh, ZNF638 /// ZNF638-IT1 / RFU, PANK3 / Fold change vs veh, PANK3 / RFU, SH3YL1 / Fold change vs veh, SH3YL1 / RFU, ZEB2 / Fold change vs veh, ZEB2 / RFU, NRIP1 / Fold change vs veh, NRIP1 / RFU, PTTG1IP / Fold change vs veh, PTTG1IP / RFU, CAPN2 / Fold change vs veh, CAPN2 / RFU, MED14 / Fold change vs veh, MED14 / RFU, SNORA58 / Fold change vs veh, SNORA58 / RFU, C1orf63 / Fold change vs veh, C1orf63 / RFU, LRRFIP1 / Fold change vs veh, LRRFIP1 / RFU, NDUFAF7 / Fold change vs veh, NDUFAF7 / RFU, SLC12A2 / Fold change vs veh, SLC12A2 / RFU, IBTK / Fold change vs veh, IBTK / RFU, ESF1 / Fold change vs veh, ESF1 / Fold change vs veh, TMEM50B / RFU, TAOK1 / Fold change vs veh, TAOK1 / RFU, ACBD3 / Fold change vs veh, ACBD3 / RFU, TMA16 / Fold change vs veh, TMA16 / RFU, RWDD3 / Fold change vs veh, RWDD3 / RFU, BCAT1 / Fold change vs veh, BCAT1 / RFU, EDEM3 / Fold change vs veh, EDEM3 / RFU, TMEM33 / Fold change vs veh, TMEM33 / RFU, WDR75 / Fold change vs veh, WDR75 / RFU, AHCTF1 / Fold change vs veh, AHCTF1 / RFU, TFRC / Fold change vs veh, TFRC / RFU, ZDHHC17 / Fold change vs veh, ZDHHC17 / RFU, NOM1 / Fold change vs veh, NOM1 / RFU, ARL8B / Fold change vs veh, ARL8B / RFU, ZBTB11 / Fold change vs veh, ZBTB11 / RFU, TAMM41 / Fold change vs veh, TAMM41 / RFU, KIAA1704 /// LOC100996395 / Fold change vs veh, KIAA1704 /// LOC100996395 / RFU, ING1 / Fold change vs veh, ING1 / RFU, TRMT61B / Fold change vs veh, TRMT61B / RFU, FUBP3 / Fold change vs veh, FUBP3 / RFU, TP53 / Fold change vs veh, TP53 / RFU, TNKS2 / Fold change vs veh, TNKS2 / RFU, ZFP14 / Fold change vs veh, ZFP14 / RFU, ACTR2 / Fold change vs veh, ACTR2 / RFU, PPP3R1 / Fold change vs veh, PPP3R1 / RFU, PIK3R1 / Fold change vs veh, PIK3R1 / RFU, HNRNPA1 / Fold change vs veh, HNRNPA1 / RFU, RNF170 / Fold change vs veh, RNF170 / RFU, ZNF28 / Fold change vs veh, ZNF28 / RFU, RNGTT / Fold change vs veh, RNGTT / RFU, OGT / Fold change vs veh, OGT / RFU, BRD1 / Fold change vs veh, BRD1 / RFU, MARS / Fold change vs veh, MARS / RFU, ZNF655 / Fold change vs veh, ZNF655 / RFU, FAHD1 / Fold change vs veh, FAHD1 / RFU, BDP1 / Fold change vs veh, BDP1 / RFU, LRRCC1 / Fold change vs veh, LRRCC1 / RFU, ARID1A / Fold change vs veh, ARID1A / RFU, ZNF146 / Fold change vs veh, ZNF146 / RFU, ZNF330 / Fold change vs veh, ZNF330 / RFU, GPN3 / Fold change vs veh, GPN3 / RFU, C9orf123 / Fold change vs veh, C9orf123 / RFU, N4BP2L2 / Fold change vs veh, N4BP2L2 / RFU, ARFIP1 / Fold change vs veh, ARFIP1 / RFU, FAM179B / Fold change vs veh, FAM179B / RFU, BCL10 / Fold change vs veh, BCL10 / RFU, UHRF1BP1L / Fold change vs veh, UHRF1BP1L / RFU, BET1 / Fold change vs veh, BET1 / RFU, CNOT2 / Fold change vs veh, CNOT2 / RFU, ZNF268 / Fold change vs veh, ZNF268 / Fold change vs veh, ZNF507 / RFU, DGCR2 / Fold change vs veh, DGCR2 / RFU, WDSUB1 / Fold change vs veh, WDSUB1 / Fold change vs veh, HSP90B1 /// MIR3652 / RFU, ADSS / Fold change vs veh, ADSS / RFU, GK / Fold change vs veh, GK / RFU, ZNF148 / Fold change vs veh, ZNF148 / RFU, TAF9 / Fold change vs veh, TAF9 / RFU, SLC1A5 / Fold change vs veh, SLC1A5 / RFU, SLMO2 / Fold change vs veh, SLMO2 / RFU, ABCC4 / Fold change vs veh, ABCC4 / RFU, LOC101060439 /// RAP1B / Fold change vs veh, LOC101060439 /// RAP1B / RFU, RFX7 / Fold change vs veh, RFX7 / RFU, GTPBP10 / Fold change vs veh, GTPBP10 / RFU, CNEP1R1 / Fold change vs veh, CNEP1R1 / RFU, BIVM-ERCC5 /// ERCC5 / Fold change vs veh, BIVM-ERCC5 /// ERCC5 / RFU, ILF3 / Fold change vs veh, ILF3 / RFU 11762660_at / Fold change /veh 11762660_at / RFU VCAN (11757783_s_at) / Fold change /veh VCAN (11757783_s_at) / RFU DDX43 (11728927_at) / Fold change /veh DDX43 (11728927_at) / RFU KRT8 (11758188_x_at) / Fold change /veh KRT8 (11758188_x_at) / RFU NKD1 (11759106_at) / Fold change /veh NKD1 (11759106_at) / RFU SRD5A1 (11742802_a_at) / Fold change /veh SRD5A1 (11742802_a_at) / RFU TPSAB1 /// TPSB2 (11721975_s_at) / Fold change /veh TPSAB1 /// TPSB2 (11721975_s_at) / RFU GSTM3 (11746129_a_at) / Fold change /veh GSTM3 (11746129_a_at) / RFU IL23R (11737362_x_at) / Fold change /veh IL23R (11737362_x_at) / RFU TMEM51 (11727254_a_at) / Fold change /veh TMEM51 (11727254_a_at) / RFU PIWIL2 (11732686_x_at) / Fold change /veh PIWIL2 (11732686_x_at) / RFU ORM1 (11744905_x_at) / Fold change /veh ORM1 (11744905_x_at) / RFU CCDC152 (11743942_at) / Fold change /veh CCDC152 (11743942_at) / RFU ECM1 (11717891_a_at) / Fold change /veh ECM1 (11717891_a_at) / RFU IL23R (11748794_a_at) / Fold change /veh IL23R (11748794_a_at) / RFU TNFAIP8L3 (11732012_x_at) / Fold change /veh TNFAIP8L3 (11732012_x_at) / RFU MBOAT4 (11741988_at) / Fold change /veh MBOAT4 (11741988_at) / RFU 11764193_at / Fold change /veh 11764193_at / RFU TMEM53 (11763286_at) / Fold change /veh TMEM53 (11763286_at) / RFU MAGEB2 (11727129_at) / Fold change /veh MAGEB2 (11727129_at) / RFU TMEM200A (11744735_a_at) / Fold change /veh TMEM200A (11744735_a_at) / RFU CCDC152 (11751479_a_at) / Fold change /veh CCDC152 (11751479_a_at) / RFU FAM211A (11726209_a_at) / Fold change /veh FAM211A (11726209_a_at) / RFU RGS16 (11746705_a_at) / Fold change /veh RGS16 (11746705_a_at) / RFU VCAN (11755009_s_at) / Fold change /veh VCAN (11755009_s_at) / RFU RHOB (11743442_s_at) / Fold change /veh RHOB (11743442_s_at) / RFU RGS16 (11720943_a_at) / Fold change /veh RGS16 (11720943_a_at) / RFU RGS16 (11720944_at) / Fold change /veh RGS16 (11720944_at) / RFU, VPS4B / Fold change vs veh, VPS4B / RFU, CREB1 / Fold change vs veh, CREB1 / RFU, DNAJC13 / Fold change vs veh, DNAJC13 / RFU, GNAQ / Fold change vs veh, GNAQ / RFU, CDK5R1 / Fold change vs veh, CDK5R1 / RFU, ZRANB3 / Fold change vs veh, ZRANB3 / RFU, CUL4A / Fold change vs veh, CUL4A / RFU, CCNY / Fold change vs veh, CCNY / RFU, UFL1 / Fold change vs veh, UFL1 / RFU, COG3 / Fold change vs veh, COG3 / RFU, DIAPH2 / Fold change vs veh, DIAPH2 / RFU, SKA2 / Fold change vs veh, SKA2 / RFU, AFF3 / Fold change vs veh, AFF3 / RFU, LMF1 / Fold change vs veh, LMF1 / RFU, IPO11 / Fold change vs veh, IPO11 / RFU, DFFB / Fold change vs veh, DFFB / RFU, FOXP1 / Fold change vs veh, FOXP1 / RFU, CARD8 / Fold change vs veh, CARD8 / RFU, STRN3 / Fold change vs veh, STRN3 / RFU, ADK / Fold change vs veh, ADK / RFU, RASSF2 / Fold change vs veh, RASSF2 / RFU, WIPF1 / Fold change vs veh, WIPF1 / RFU, LARP1B / Fold change vs veh, LARP1B / RFU, RASA1 / Fold change vs veh, RASA1 / RFU, RB1 / Fold change vs veh, RB1 / RFU, PPFIA1 / Fold change vs veh, PPFIA1 / RFU, MAT2A / Fold change vs veh, MAT2A / RFU, CCT5 / Fold change vs veh, CCT5 / RFU, WDR92 / Fold change vs veh, WDR92 / RFU, CUX1 / Fold change vs veh, CUX1 / RFU, TTC7A / Fold change vs veh, TTC7A / RFU, TMEM135 / Fold change vs veh, TMEM135 / RFU, DEPTOR / Fold change vs veh, DEPTOR / RFU, CPM / Fold change vs veh, CPM / RFU, DNAJB6 / Fold change vs veh, DNAJB6 / RFU, CACNA2D3 / Fold change vs veh, CACNA2D3 / RFU, DTX4 / Fold change vs veh, DTX4 / RFU, TFCP2 / Fold change vs veh, TFCP2 / RFU, GMCL1 /// GMCL1P1 / Fold change vs veh, GMCL1 /// GMCL1P1 / RFU, AEBP2 / Fold change vs veh, AEBP2 / RFU, SNHG1 /// SNORD22 /// SNORD25 /// SNORD26 /// SNORD27 /// SNORD28 /// SNORD29 /// SNORD31 / Fold change vs veh, SNHG1 /// SNORD22 /// SNORD25 /// SNORD26 /// SNORD27 /// SNORD28 /// SNORD29 /// SNORD31 / Fold change (Aza/veh), C12orf56 (ProbeSet 11735607_a_at) / Fold change (ACY-1035/veh), C12orf56 (ProbeSet 11735607_a_at) / Fold change (Aza/veh), FGFR1OP (ProbeSet 11751329_s_at) / Fold change (ACY-1035/veh), FGFR1OP (ProbeSet 11751329_s_at) / Fold change (Aza/veh), VPS36 (ProbeSet 11739960_a_at) / Fold change (ACY-1035/veh), VPS36 (ProbeSet 11739960_a_at) / RFU SYPL1 (11715823_x_at) / Fold change /veh SYPL1 (11715823_x_at) / RFU IGFBP7 (11715501_s_at) / Fold change /veh IGFBP7 (11715501_s_at) / RFU REEP3 (11722064_at) / Fold change /veh REEP3 (11722064_at) / RFU IGLL1 (11728026_x_at) / Fold change /veh IGLL1 (11728026_x_at): dose or concentration left out as unconfirmed
Details: MV-4-11 cells, 48 hours

## Nc1ccc(-c2cccs2)cc1NC(=O)c1ccc2c(c1)cc(C1CC1)n2CCN1CCOCC1 [ACY-1035]
  RFU FAM174B (11720279_a_at): 24.40 RFU
